In patent publication US20090093374A1, “METHOD OF ARRAYING CELLS AT SINGLE-CELL LEVEL INSIDE MI[…] AND METHOD OF ANALYSING CELLS USING THE SAME, AND CELL ANALYSIS CHIP USED FOR CARRYING OUT THE SAME” (priority 2007, published 2009):

Tests used:
a-type yeast cell [1] = test: GFP expression of yeast cells arrayed in shallow rectangular microwells, cell solution pre-treated with α-factor (Embodiment 1); type: cell-based, Saccharomyces cerevisiae; conditions: FIG. 14
From the text: (§1) For example, to obtain information with regard to a mating of the yeast cell, a pheromone, e.g., so-called α-factor, may be injected into the fluidic channel as the analysis reagent. If an a-type yeast cell is used as the cell, it is preferable that a pheromone of which a sequence is TRP-HIS-TRP-LEU-GLN-LEU-LYS-PRO-GLY-GLN-PRO-MET-TYR, is used as α-factor. In a subsequent operation, when analyzing responses, it is possible to obtain information with regard to whether or not a protein related to the mating is created in a corresponding cell, and the amount of the protein.
(§2) For instance, in the case where the yeast cell is treated with α-factor, it is possible to observe whether or not a protein related to the mating is created and the amount of the protein through the expression intensity of a green fluorescent protein (GFP) with a time. Moreover, in the case where the yeast cell is treated with KCl, it is possible to find out the creation amount of corresponding proteins through a red fluorescent protein (RFP), and also analyze the response of the corresponding yeast cell upon the external stress.
A mixed solution in which a-type yeast cell solution using yeast extract peptone dextrose (YPD) medium had been pre-treated with α-factor, e.g., pheromone having a sequence of TRP-HIS-TRP-LEU-GLN-LEU-LYS-PRO-GLY-GLN-PRO-MET-TYR, was introduced into a fluidic channel through an inlet. The introduced mixed solution filled the fluidic channel through a capillary flow.
After that, the inlet was sealed with a tape so that the mixed solution was evaporated through an outlet. Accordingly, a receding meniscus was generated, allowing the cells to be arrayed in the well structures at a single-cell level. At this time, it took about 10 minutes for the cells to be arrayed while the meniscus was receding.
FIG. 14 is a micrograph showing GFP expression of a yeast cell with respect to α-factor according as a time elapses using the fluidic channel. […]

a-type yeast cell [2] = test: GFP expression of yeast cells arrayed in deep rectangular microwells, α-factor introduced after arraying and cleaning (Embodiment 2); type: cell-based, Saccharomyces cerevisiae; conditions: FIG. 15
From the text: as §1, §2
An a-type yeast cell solution using YPD medium was introduced into a fluidic channel. The introduced cell solution was filled into the fluidic channel through a capillary flow. After that, the inlet was sealed with a tape so that the cell solution was evaporated through an outlet. Accordingly, a receding meniscus was generated, thereby allowing the cells to be arrayed in the well structures at a single-cell level.
Afterwards, a cleaning solution containing amino acid, nitrogen, glucose, etc was introduced through the capillary flow caused by a surface tension, residual cells remaining at a side of the inlet were cleaned. At this time, a tissue paper was placed in the outlet to absorb and remove the residual cells and the cleaning solution.
After the residual cells are completely cleaned, […] was also introduced into the microfluidic channel by the capillary flow caused by the surface tension. […]

[3] = 30 minutes after α-factor treatment
[4] = 60 minutes after α-factor treatment
[5] = 120 minutes after α-factor treatment (versus 60 minutes)

Substance: TRP-HIS-TRP-LEU-GLN-LEU-LYS-PRO-GLY-GLN-PRO-MET-TYR (WHWLQLKPGQPMY; printed: TRP-HIS-TRP-LEU-GLN-LEU-LYS-PRO-GLY-GLN-PRO-MET-TYR) [α-factor, pheromone used as analysis reagent for mating response of a-type yeast cell]
- GFP expression (a-type yeast cell [1]; [3]): cannot be observed yet
- GFP expression (a-type yeast cell [1]; [4]): observed to be bright
- GFP expression intensity (a-type yeast cell [1]; [5]): does not vary
- GFP expression (a-type yeast cell [2]; [3]): cannot be observed yet
- GFP expression (a-type yeast cell [2]; [4]): observed to be bright
- GFP expression intensity (a-type yeast cell [2]; [5]): does not vary
